The target in this assay is T1, NOX2 in differentiated HL60 cells (Homo sapiens, UniProt P04839).
T1 construct: Differentiation of HL-60 cells to granulocytes increases NOX2 expression; endogenous in cells; host or cells: HL60 cells differentiated to neutrophil-like cells with 1.3% DMSO and stimulated with PMA
T1 sequence (P04839 1-570): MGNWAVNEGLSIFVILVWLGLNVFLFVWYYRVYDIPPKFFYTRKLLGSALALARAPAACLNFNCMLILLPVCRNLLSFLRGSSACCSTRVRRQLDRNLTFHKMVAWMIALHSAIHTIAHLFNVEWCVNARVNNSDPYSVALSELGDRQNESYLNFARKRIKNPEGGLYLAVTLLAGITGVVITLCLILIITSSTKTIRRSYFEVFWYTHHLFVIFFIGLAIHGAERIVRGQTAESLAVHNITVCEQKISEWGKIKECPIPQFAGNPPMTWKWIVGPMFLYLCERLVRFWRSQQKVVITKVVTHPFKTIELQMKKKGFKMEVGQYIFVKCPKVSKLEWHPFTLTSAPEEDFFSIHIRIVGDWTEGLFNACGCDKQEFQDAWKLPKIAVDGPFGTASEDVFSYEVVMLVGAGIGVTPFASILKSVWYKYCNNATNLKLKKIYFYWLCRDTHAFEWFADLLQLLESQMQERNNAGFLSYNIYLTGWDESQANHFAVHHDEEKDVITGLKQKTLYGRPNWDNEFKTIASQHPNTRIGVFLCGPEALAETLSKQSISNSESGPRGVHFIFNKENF
T1 sequence (P13498 1-195 partner): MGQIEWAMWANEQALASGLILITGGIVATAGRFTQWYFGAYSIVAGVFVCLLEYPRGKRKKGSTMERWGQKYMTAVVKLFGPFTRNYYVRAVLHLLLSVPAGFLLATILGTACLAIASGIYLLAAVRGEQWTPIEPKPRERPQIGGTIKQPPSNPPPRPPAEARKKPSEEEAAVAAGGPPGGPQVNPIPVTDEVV
The assay can be described thus: HL60 cell-based assays (Assay 1 Oxyburst green BSA fluorescence, Assay 2 L-012 luminescence); result stated for at least one of them. The note with it: PMA-stimulated superoxide production in differentiated HL60 cells; at least one of Oxyburst and L012 assays; read-out: pIC50 in at least one of the HL60 assays (converted). The procedure: In the cell-based assay, superoxide production by NOX2 was measured in differentiated HL60 cells, a human myelomonocytic leukemia cell line, using either Oxyburst (Assay1) or L012 (Assay2). Differentiation of HL-60 cells to granulocytes increases NOX2 expression. The phorbol 12-myristate 13-acetate (PMA) was used to stimulate the production of superoxide in HL60 cells by activating protein kinase C, which then activated the NADPH oxidase (NOX) enzymes. Inhibition of NOX2 enzyme was detected by the reversal of fluorescence signal (Assay1) or luminescence signal (Assay2). The control inhibitor used was diphenyleneiodonium chloride (DPI), a […] inhibitor capable of non-selectively inhibiting superoxide produced by NOX enzymes.
Assay 1: in this high-throughput screening assay, oxyburst green bovine serum albumin (BSA) was used to detect superoxide production in HL60 cells. Oxidation of Oxyburst green BSA by hydrogen peroxide as a result of the activation of NOX2 by PMA. Oxyburst green BSA fluorescence was measured at excitation 485 nm and emission 530 nm.
Assay 2: in this assay, a chemiluminescence probe, L-012 was used to detect superoxide production in HL60 cells. L-012 reacted with various types of reactive oxygen species generated by PMA-activated HL60 cells. Luminescence was measured using Tecan Infinite 500.
The HL60 cells were differentiated into neutrophil-like cells by adding 1.3% DMSO in the media for 3-7 days (Hua, J et al. (2000) Journal of Leukocyte Biology. 68:216-224). Iscove's Modified Dulbecco's Media (IMDM) with L-Glutamine and 25 mM HEPES buffer, Fetal Bovine Serum (FBS), Penicillin/Streptomycin, Oxyburst Green BSA, PBS, and HBSS buffer with Calcium Chloride and Magnesium Chloride were purchased from Invitrogen (Catalog #s: 12440-061, 10500-064, 15140-163, O-13291, 14190-250, and 14025-134 respectively). Phorbol 12-myristate 13-acetate (PMA), glucose, and CHAPS were purchased from Sigma (Catalog #s: 79346, D-9434, and C5070 respectively). Diphenyleneiodonium chloride (DPI) was purchased from Toronto Research Chemicals (Catalog #: D491500). L-012 was purchased from Wako Chemical (Catalog #: 120-04891). Dimethyl sulfoxide (DMSO) was purchased EMD Chemicals (VWR Catalog #: MX1456-1). Multidrop combi was purchased from Thermo Electron Corporation (Waltham, Mass., USA). Hummingbird nanoliter liquid dispenser was purchased from Genomics Solution (Ann Arbor, Mich., USA). 384 well low-volume plates and polypropylene 384 well clear plates were purchased from Greiner (Catalog #: 784076 and 781280 respectively). 96 well plate and 384 well plate black assay plates were purchased from Greiner (Catalog #: 655094 and 781098). 96 well plate for compound serial dilution was purchased from Corning (Catalog #: 9017). Acquest or Analyst fluorescence plate reader was purchased from LJL Biosystems/Molecular Devices (California, USA). Tecan Infinite 500 was purchased from Tecan (Switzerland).
Media for HL60 cells were kept at 4° C. for storage and were warmed to 37° C. in a water bath before use. The media components were IMDM media with 20% FBS and 1% Penicillin/Streptomycin.
Buffer to be used for compound addition and compound dilution consisted of HBSS buffer with 0.1% glucose.
Buffer to be used for cells consisted of HBSS buffer with 0.1% glucose and 0.01% CHAPS.
HL60 cells were thawed and resuspended in Cells media. The cells were centrifuged at 1200 rpm for 8 minutes. Media was aspirated and the cells were resuspended in Cells buffer. The cells were counted and resuspended to 1×10^6 cells/mL.
Full inhibition controls were dispensed using 100 nL/well of 1 mM DPI in DMSO to column 18 of a 384 well plate. Compounds were dispensed using 100 nL/well. Full activity controls were dispensed using 100 nL/well of 4 uM PMA in DMSO. Oxyburst Green BSA was added to cell solution at 10 ug/mL. Using the Multidrop, 10 uL cell solution was added to the entire assay plate. The assay plate was incubated at room temperature for 100 minutes. […]

Where a name gives a salt, the structure may show the parent alone. Where only a bound is given, the exact number is not on record here.

With `COc1cccc(-c2c(C)sc3nc(C)cc(NS(=O)(=O)C4CCCCC4)c23)c1` [Example 8, N-{2,6-Dimethyl-3-[3-(methyloxy)phenyl]thieno[2,3-b]pyridin-4-yl}-cyclohexanesulfonamide], the IC50 was less than 100 µM. Regarding `COc1cccc(-c2c(-c3cccnc3)sc3nc(C)cc(NS(=O)(=O)c4cccc(Cl)c4)c23)c1` [Example 41, 3-Chloro-N-[6-methyl-3-[3-(methyloxy)phenyl]-2-(3-pyridinyl)thieno[2,3-b]pyridin-4-yl]-benzenesulfonamide], the IC50 was less than 100 µM. In the case of `COc1cccc(-c2c(-c3cn[nH]c3)sc3nc(C)cc(NS(=O)(=O)c4cccc(Cl)c4)c23)c1` [Example 58, 3-Chloro-N-[6-methyl-3-[3-(methyloxy)phenyl]-2-(1H-pyrazol-4-yl)thieno[2,3-b]pyridin-4-yl]benzenesulfonamide], the IC50 is less than 100 µM. Under `COc1cccc(-c2c(C)sc3nc(C)cc(NS(=O)(=O)C4(Cl)CCN(C(=O)OCc5ccccc5)CC4)c23)c1` [Example 10, Phenylmethyl 4-chloro-4-[({2,6-dimethyl-3-[3-(methyloxy)phenyl]thieno[2,3-b]pyridin-4-yl}amino)sulfonyl]-1-piperidinecarboxylate] stands less than 100 µM; under `COc1cccc(-c2c(-c3ccoc3)sc3nc(C)cc(NS(=O)(=O)c4cccc(Cl)c4)c23)c1` [Example 57, 3-Chloro-N-{2-(3-furanyl)-6-methyl-3-[3-(methyloxy)phenyl]thieno[2,3-b]pyridin-4-yl}-benzenesulfonamide], less than 100 µM. Consider `COc1cccc(-c2c(C)sc3nc(C)cc(NS(=O)(=O)c4cccc(Cl)c4)c23)c1` [Example 1, 3-Chloro-N-{2,6-dimethyl-3-[3-(methyloxy)phenyl]thieno[2,3-b]pyridin-4-yl}-benzenesulfonamide], for which the IC50 is less than 100 µM. As to `Cc1cc(NS(=O)(=O)c2cccc(Cl)c2)c2c(-c3cn[nH]c3)c(C)sc2n1` [Example 63, 3-Chloro-N-[2,6-dimethyl-3-(1H-pyrazol-4-yl)thieno[2,3-b]pyridin-4-yl]benzenesulfonamide], the IC50 is less than 100 µM. Under `COc1cncc(-c2c(C)sc3nc(C)cc(NS(=O)(=O)c4cccc(Cl)c4)c23)c1` [Example 67, 3-Chloro-N-{2,6-dimethyl-3-[5-(methyloxy)-3-pyridinyl]thieno[2,3-b]pyridin-4-yl}benzenesulfonamide] stands less than 100 µM; under `COc1cccc(-c2csc3nccc(NS(=O)(=O)c4cccc(Cl)c4)c23)c1` [Example 62, 3-Chloro-N-{3-[3-(methyloxy)phenyl]thieno[2,3-b]pyridin-4-yl}benzenesulfonamide], less than 100 µM. In the case of `Cc1cc(NS(=O)(=O)c2cccc(Cl)c2)c2c(Br)c(-c3cn[nH]c3)sc2n1` [Example 100, N-[3-Bromo-6-methyl-2-(1H-pyrazol-4-yl)thieno[2,3-b]pyridin-4-yl]-3-chlorobenzenesulfonamide], the IC50 was less than 100 µM. Under `COc1cccc(-c2c(C(C)C)sc3nc(C)cc(NS(=O)(=O)c4cccc(Cl)c4)c23)c1` [Example 45, 3-Chloro-N-{6-methyl-2-(1-methylethyl)-3-[3-(methyloxy)phenyl]thieno[2,3-b]pyridin-4-yl}-benzenesulfonamide trifluoroacetate] stands less than 100 µM; under `CCc1sc2nc(C)cc(NS(=O)(=O)c3cccc(Cl)c3)c2c1-c1cccc(N(C)C)c1` [Example 48, 3-Chloro-N-{3-[3-(dimethylamino)phenyl]-2-ethyl-6-methylthieno[2,3-b]pyridin-4-yl}benzenesulfonamide trifluoroacetate], less than 100 µM; under `Cc1cccc(-c2c(C)sc3nc(C)cc(NS(=O)(=O)c4cccc(Cl)c4)c23)c1` [Example 69, 3-Chloro-N-[2,6-dimethyl-3-(3-methylphenyl)thieno[2,3-b]pyridin-4-yl]benzenesulfonamide], less than 100 µM.

Turning to `COc1cccc(-c2c(C)sc3nc(Cl)cc(NS(=O)(=O)c4cccc(Cl)c4)c23)c1` [Example 117, 3-Chloro-N-{6-chloro-2-methyl-3-[3-(methyloxy)phenyl]thieno[2,3-b]pyridin-4-yl}benzenesulfonamide], the IC50 is less than 100 µM. Under `Cc1cc(NS(=O)(=O)c2cccc(Cl)c2)c2c(C)c(-c3cn[nH]c3)sc2n1` [Example 76, 3-Chloro-N-[3,6-dimethyl-2-(1H-pyrazol-4-yl)thieno[2,3-b]pyridin-4-yl]benzenesulfonamide] stands less than 100 µM; under `Cc1cc(NS(=O)(=O)c2cccc(Cl)c2)c2c(-c3ccc(Cl)c(Cl)c3)c(C)sc2n1` [Example 20, 3-Chloro-N-[3-(3,4-dichlorophenyl)-2,6-dimethylthieno[2,3-b]pyridin-4-yl]benzenesulfonamide], less than 100 µM.

On to `Cc1cc(NS(=O)(=O)c2cccc(Cl)c2)c2c(-c3cccc(CNC(=O)OC(C)(C)C)c3)c(C)sc2n1` [Example 70, 1,1-Dimethylethyl {[3-(4-{[(3-chlorophenyl)sulfonyl]amino}-2,6-dimethylthieno[2,3-b]pyridin-3-yl)phenyl]methyl}carbamate], for which the IC50 is less than 100 µM. Regarding `COc1cccc(-c2c(-c3cccs3)sc3nc(C)cc(NS(=O)(=O)c4cccc(Cl)c4)c23)c1` [Example 44, 3-Chloro-N-[6-methyl-3-[3-(methyloxy)phenyl]-2-(2-thienyl)thieno[2,3-b]pyridin-4-yl]-benzenesulfonamide], the IC50 was less than 100 µM. Under `COc1cccc(-c2c(C)sc3nc(C)cc(NS(=O)(=O)c4cncc(Br)c4)c23)c1` [Example 52, 5-Bromo-N-{2,6-dimethyl-3-[3-(methyloxy)phenyl]thieno[2,3-b]pyridin-4-yl}-3-pyridinesulfonamide trifluoroacetate] stands less than 100 µM; under `COc1cccc(-c2c(-c3ccco3)sc3nc(C)cc(NS(=O)(=O)c4cccc(Cl)c4)c23)c1` [Example 42, 3-Chloro-N-{2-(2-furanyl)-6-methyl-3-[3-(methyloxy)phenyl]thieno[2,3-b]pyridin-4-yl}-benzenesulfonamide], less than 100 µM.

The values are drawn from patent US9029545B2, “Thienopyridine NOX2 inhibitors” (GlaxoSmithKline Intellectual Property Limited, priority 2009, dated 2015).
